Columns and labels:
[1] = zeta potential of particles in sodium bicarbonate buffer; type: physicochemical
Description: Surface Charges of Heparin-DOCA Particle. Zeta potentials of heparin-DOCA particles in sodium bicarbonate buffer were measured according to procedures well known in the art. The negative potential of heparin-DOCA conjugate particles was decreased by mixing with free DOCA. This was due to the fact that the DOCA moiety coupled to heparin could be exposed on the surface of heparin-DOCA conjugate particles by mixing with free DOCA.

[2] = background, literature; cited from earlier work

Compound	Zeta Potential [1]	absorption in the GI tract [2]
C[C@H](CCC(=O)O)[C@H]1CC[C@H]2[C@@H]3CC[C@@H]4C[C@H](O)CC[C@]4(C)[C@H]3C[C@H](O)[C@]12C [Bile Acid, deoxycholic acid]	−22.3 ± 11.4 mv	
heparin		not absorbed in the GI tract
